# “Also recorded” adds a separate entry of the source. Peptide text beside a SMILES is read from it. * marks the point of attachment. Cbz = O=C(OCc1ccccc1)*
# Assays:
# Type in all cases: cell-based, human
# [1] = system: clonal mNeon-tagged reporter cell lines; assay: FACS of clonal mNeon-tagged reporter cell lines after drug stimulation
# Description: (§1) Analytical flow cytometry. For optional genomic DNA staining, 1/20 volume of Hoechst 33342 (10 mg/ml, Thermo) was added to live cells for 15 minutes at 37° C. Cells were washed in PBS, trypsinized, resuspended in media, and analyzed on a CytoFLEX (Beckman Coulter) in 96-well plate mode.
# MSH6 = assay: MSH6-mNeonGreen reporter cell line assayed by FACS; details: for MSH6-mNeonGreen expression after application of single compounds: single compounds at 125 nM for 6 h
# Description: as §1
# PRKDC = assay: PRKDC-mNeonGreen reporter cells assayed by FACS; details: 125 nM, indicated time points
# Description: as §1
# [2] = system: library of tagged HEK293T cells; assay: SBP/PATTERNS protein quantification (FACS binning and tag/barcode sequencing) of drug-treated versus untreated control cells; details: for number of proteins significantly affected, by PATTERNS: 6 hours stated for Bortezomib
# Description: Library-scale RNP-mediated gene tagging. On day one, 18 million HEK293T NeoR-KO cells were plated per 15-cm dish into 32 dishes. On day two, 4 ml of scaled-up transfection mix (see above) were gently added per dish. On day seven, cells were trypsinized and re-plated in media containing 300 μg/ml G418 (Invivogen). The selection media was changed every 4-8 days. On day 25, the library was pre-enriched for detectable fluorescence by FACS sorting, gating on the top-30% mNeon-positive population. The library was expanded for a week and frozen for future use.
# Transposition-based Tag Integration Site Sequencing (TTISS). 800,000 cells were resuspended in 80 μl direct lysis buffer (1 mM CaCl2), 3 mM MgCl2, 1 mM EDTA, 1% Triton X-100, 10 mM Tris pH 7.5, 0.2 mg/ml Proteinase K), lysed at 65° C. for 10 minutes, and kept on ice or frozen at −20° C. 25 μl 5×TAPS buffer (50 mM TAPS-NaOH pH 8.5, 25 mM MgCl2), and 21 μl transposon-loaded Tn5 (16 mg/ml, produced as described in Picelli, S. et al. Tn5 transposase and tagmentation procedures for massively scaled sequencing projects. Genome Res 24, 2033-2040, doi: 10.1101/gr.177881.114 (2014), titrated batch-wise for optimal fragment sizes) were added, mixed well, and incubated at 55° C. for 10 minutes. The reaction was mixed with 625 μl buffer PB (Qiagen) and purified using a plasmid miniprep column (Qiagen). Typical yields were 15 μg per column. The tagmentation size distribution was verified on an agarose gel to range from 200 bp to 1 kb. All DNA from a single column was used as template in a 300 μl KOD extreme hot start PCR (Roche) with primers TTISS-mNeon-fwd1 and Tn5-Loading-R2 (Table 1), 12 cycles, Ta=60° C. 6 μl of PCR reaction was used as template in a secondary 50 μl KOD extreme hot start PCR with a unique combination of barcoded primers TTISS-mNeon-fwd2-D50× and TTISS-rev2-D70x(Table 1), 20 cycles, Ta=65° C. Barcoded PCRs were pooled on ice, purified using a PCR column (Qiagen), and run on an agarose gel. Products of 250 bp-1 kb were excised, purified using a gel purification kit (Qiagen), and re-purified using a PCR column (Qiagen). Samples were quantified using a NanoDrop spectrometer and sequenced using a NextSeq High Output kit (Illumina) with 30% PhiX spike-in and the following read settings: 120 cycles read 1, 25 cycles read 2, 8 cycles index 1, and 8 cycles index 2.
# Alternatively, 22 bp forward (fwd) reads and 8 bp reverse (rev) reads were aligned to 1 kb windows of the human genomic sequence (hg38) upstream of gRNA target sites not allowing mismatches, and hits were filtered to be in-frame with the annotated ORF (RefSeq). For gRNA-wise protein quantification, counts per gRNA from six adjacent sorted bins were used to calculate the weighted mean bin and variance. For UMI-based evaluation, a dictionary of UMIs was created per sequencing run by calculating a 28-bit hash of nine UMI bases together with one constant donor base and 22 target bases from successfully aligned fwd reads using the same alignment parameters as for gRNA-wise protein quantification. The hash was used to count UMI occurrences and store UMI sequence/target information in an array with typically below 10 conflicts per run. UMIs were collapsed with an edit distance of 1 in order to account for sequencing errors. The UMI dictionary was used to count bin- and UMI-wise reads using the same hash function. Counts per UMI from six adjacent sorted bins were used to calculate the weighted mean bin and variance. All software was written as interactive web tools in JavaScript and will be available through GitHub.
# FACS sorting. Cells were trypsinized, washed in FluoroBrite DMEM Media (Thermo) and sorted using a Sony MA900 (where not denoted otherwise) or a MoFlo Astrios sorter (for […], SKMEL28 screens) using a 488 nm laser. Cells were collected in 1 ml growth medium and kept on ice until pelleting and lysis.
# De-convolution of sorted libraries using Silent Barcode Sequencing. […]
# HEK293T cells [3] = assay: RNA-sequencing transcript expression, drug-treated versus untreated control cells
# Description: RNA-seq. Whole-cell RNA was purified using an RNeasy Plus Mini Kit (Qiagen). Poly (A) mRNA was enriched using the Poly(A) mRNA Magnetic Isolation Module (NEB). Sequencing libraries were prepared using the NEBNext Ultra II Directional RNA Library Prep kit (NEB), quantified using a NanoDrop (Thermo), and sequenced on the NextSeq sequencer (Illumina). Reads were aligned to the human genome and gene expression was quantified using the online tool BrowserGenome.org (Schmid-Burgk, J. L. & Hornung, V. BrowserGenome.org: web-based RNA-seq data analysis and visualization. Nat Methods 12, 1001, doi: 10.1038/nmeth.3615 (2015)).
# HEK293T cells [4] = assay: TMT labeling whole proteome mass spectrometry, drug-treated versus untreated control cells
# Description: Mass spectrometry. Cells were grown and stimulated in 10 cm dishes, washed three times in cold PBS, and scraped into 1 ml 8 M urea in water per dish. Protein content of the lysates was quantified using Pierce 660 reagent and a NanoDrop spectrometer. Samples were reduced, iodoacetamide alkylated, digested with Trypsin, labeled with 10-plex TMT (VWR cat no PI90110), and combined. After SPE clean-up and volume reduction by SpeedVac, the combined sample was run on a C18 reverse phase LC using a pH 10 A buffer, and eight fractions were collected. The volume was reduced to 20 μl by SpeedVac. Each fraction was run on an EASY nLC HPLC attached to a Thermo QE-HFX mass spectrometer in nanospray configuration using a 90 minutes acquisition time. Proteins were quantified using the MaxQuant software package.
# Statistical analysis. Mass spectrometry reporter intensity data were imported into Perseus software, log-2-transformed, and filtered for missing values as well as reverse peptides or potential contaminants. Data were median-subtracted and significant outliers were determined by performing two-sided unpaired t-tests, correcting for multiple testing using an FDR=5% and s0=0.1, performing 250 randomizations. PATTERNS mean protein level bin data were processed in the same way except without the filtering and normalization steps. Volcano plots were generated using the Perseus software, and all other plots were created using custom code.
# HEK293T cells [5] = assay: Immunoblotting validation of predicted drug-regulated proteins; details: time points after drug treatment
# Description: Immunoblotting. Cells were lysed in 6-well plates in 400 μl 2×LDS buffer (Thermo) supplemented with 2×Bolt reducing agent (Thermo), heated to 95° C. for 15 minutes, and cooled on ice. 9 μl lysate was loaded per lane of Bolt 4-12% Bis-Tris Plus gels (Thermo) and run at 100 V for 1:15 h. Blotting was performed using the iBlot PVDF kit (Thermo) and program P-3 for 4 minutes. After blocking for 1 h in TBST 5% BSA, primary antibodies were bound over night at 4° C. in TBST 5% BSA. After triple washing, HRP-conjugated secondary antibodies (Cell Signaling Technology) were bound at 1:5000 dilution in TBST 5% BSA for 1 h at room temperature. Blots were imaged using Pierce ECL (Thermo) on a Chemidoc luminescence imager (Biorad). Primary antibodies used were: RBM39 clone 4G8 (Novus Biologicals), DDIT4 clone EPR18716 (Abcam), BRD2 clone D89B4 (Cell Signaling Technology), RRM2 clone 1E1 (Sigma), HRP-coupled beta-Actin clone 13E5 (Cell Signaling Technology), and cell cycle antibody cocktail (ab136810, Abcam).
# [6] = drug-treated vs untreated control cells
compound,measurement,setting,value
CC(C)C[C@@H](C=O)NC(=O)[C@H](CC(C)C)NC(=O)[C@H](CC(C)C)NC(=O)OCc1ccccc1 [MG-132] (Cbz-Leu-Leu-Leu-aldehyde),DDIT4 regulation in clonal mNeon-tagged reporter cell line by FACS,[1]; stimulated for six hours,regulated
"CC1(C)CC(=O)c2c(C(F)(F)F)nn(-c3ccc(C(N)=O)c(N[C@H]4CC[C@H](O)CC4)c3)c2C1 [SNX2112, SNX-2112]",kinetics of the reduction of MSH6 levels,"MSH6; 125 nM, indicated time points",significant depletion in MSH6 levels in under two hours
same,MSH6-mNeonGreen expression after application of single compounds,MSH6,downregulation
same,kinetics of the reduction of PRKDC levels,PRKDC,also observed
NS(=O)(=O)c1ccc(S(=O)(=O)Nc2cccc3c(Cl)c[nH]c23)cc1 [Indisulam],effect size of the next potentially depleted protein by SBP,"[2]; drug vs DMSO control, comparison with RBM39",−0.37 bins
same,RBM39 effect size (change of mean protein expression bin) by SBP,"[2]; drug vs DMSO control, six sorted expression bins, two replicate runs",−2.1 bins
same,RBM39 protein level change by SBP/PATTERNS,[2]; drug-treated vs control tagged library,highly specific depletion
same,significantly depleted proteins by SBP/PATTERNS (specificity),"[2]; two replicates, FDR 5%",only significantly depleted protein
same,RBM39 RNA level,HEK293T cells [3]; [6],no significant change
same,RBM39 down-regulation by TMT whole proteome mass spectrometry,HEK293T cells [4]; strong but not statistically significant hit,2 fold
same,RBM39 depletion validated by western blot,HEK293T cells [5],confirmed
same,RBM39 depletion validated by FACS of a clonal reporter cell line,[1]; stimulated for six hours,confirmed
CC(C)C[C@H](NC(=O)[C@H](Cc1ccccc1)NC(=O)c1cnccn1)B(O)O [Bortezomib],DDIT4 level by PATTERNS,"[2]; HEK293T library, 6 hours, change may be non-specific",affected
same,"number of proteins significantly affected, by PATTERNS",[2]; HEK293T library,55 proteins
same,DDIT4 level change (mean protein expression bin) by SBP,"[2]; topmost change, not statistically significant in the SBP data",+1.6 bins
same,DDIT4 identification as target by RNA-Seq,HEK293T cells [3]; [6],could not identify
same,PATTERNS hits regulated at the transcript level (RNA-sequencing),HEK293T cells [3]; of the 55 PATTERNS hits,only GADD45B
same,DDIT4 quantification by quantitative mass spectrometry,HEK293T cells [4]; [6],failed to quantify
same,outlier / upregulated proteins by TMT whole proteome mass spectrometry,"HEK293T cells [4]; drug-treated vs untreated control cells, triplicate",ATF3 and JUN; also recorded: two upregulated proteins
same,DDIT4 increase validated by western blot,HEK293T cells [5],confirmed
same,"PATTERNS hits DDIT4, ID1, ID2 and JUN validated by western blot",HEK293T cells [5],confirmed
same,"PATTERNS hits DDIT4, ID1, ID2 and JUN validated by FACS of reporter cell lines",[1],confirmed
same,DDIT4 regulation in clonal mNeon-tagged reporter cell line by FACS,[1]; stimulated for six hours,confirmed
CCc1c(O)cc(O)c(C(=O)c2ccc(OCCN3CCOCC3)c(OC)c2)c1CC(=O)N(CCOC)CCOC.Cl [KW-2478],MSH6-mNeonGreen expression after application of single compounds,MSH6,downregulation
CC1(C)CC(=O)c2c(C(F)(F)F)nn(-c3ccc(C(N)=O)c(N[C@H]4CC[C@H](OC(=O)CN)CC4)c3)c2C1 [SNX-5422],MSH6-mNeonGreen expression after application of single compounds,MSH6,downregulation
Cc1ncsc1-c1ccc(CNC(=O)[C@@H]2C[C@@H](O)CN2C(=O)[C@@H](NC(=O)COCCOCCOCCNC(=O)C[C@@H]2N=C(c3ccc(Cl)cc3)c3c(sc(C)c3C)-n3c(C)nnc32)C(C)(C)C)cc1 [MZ-1],"BRD protein family members degraded, by PATTERNS",[2]; HEK293T library,"degradation of two BRD protein family members, BRD2 and BRD3"
same,"number of proteins significantly affected, by PATTERNS",[2]; HEK293T library,20 proteins
same,BRD2 protein level change by SBP,[2]; drug vs DMSO control,significant decrease
same,BRD2 identification by RNA-Seq,HEK293T cells [3]; [6],could not be identified
same,BRD4 in mass spectrometry analysis,HEK293T cells [4]; BRD4 not represented in the SBP library,not statistically significant hit
same,BRD2 down-regulation by mass spectrometry,HEK293T cells [4]; strong albeit not statistically significant hit,2.3 fold
same,BRD2 decrease validated by western blot,HEK293T cells [5],confirmed
same,BRD2 decrease validated by FACS of clonal reporter cell line,[1]; stimulated for six hours,confirmed

# Reference: patent US12281301B2, “Sequencing-based proteomics” (THE BROAD INSTITUTE, INC., priority 2018, dated 2025)
